SMILES strings stand for the structures.

Data set [1] has as its system U87MG xenograft. Description: In vivo NIR fluorescence imaging, U87MG xenograft-bearing nude mice. Here is the method: (§1) To evaluate the tumor-targeting characteristics of DZ-TCO derivatives, DZ-1-TCO, DZ-Lys-TCO, and DZ-Lys-PEG4-TCO were administered to HeLa and U87MG xenograft-bearing nude mice (100 μL of 50 μM, n = 3 per group). In vivo fluorescence imaging was conducted at 4, 24, 48, 72, and 96 h after TCO compound injection.
(§2) Female BALB/c nude mice (4–6 weeks old; 14–20 g), obtained from Beijing Vital River Laboratory Animal Technology Co., Ltd. (Beijing, China), were subcutaneously inoculated with 5 × 10^6 HeLa or U87MG cells suspended in 100 μL PBS into the right flank. Tumor growth was monitored every 2–3 days using digital calipers, and experiments were initiated when tumor volumes reached approximately 150–300 mm^3, calculated using the formula Volume = (length × width^2)/2.
(§3) To assess the tumor-targeting capability and clearance kinetics of DZ-TCO precursors, 100 µL of each compound ([…] in PBS) was administered intravenously via the tail vein. Whole-body fluorescence imaging was performed at predetermined time points (4, 24, 48, 72, and 96 h post-injection) using the IVIS Spectrum imaging system (PerkinElmer, Shelton, CT, USA) (excitation/emission, 745/820 nm) with automatic subtraction of background fluorescence during the acquisition. Fluorescence signals were acquired under standardized exposure settings, and region-of-interest (ROI) analysis was conducted using Living Image software version 4.4 (PerkinElmer) to quantify fluorescence intensity in the tumor and major organs.

Data set [2] deals with HeLa xenograft. As to the kind of experiment: In vivo NIR fluorescence imaging, HeLa xenograft-bearing nude mice. Here is the method: as §1, §2, §3
Data set [3] relates to HeLa and U87MG xenograft. Description: In vivo NIR fluorescence imaging, results not split by tumor model (organs, tumor-to-background ratios, retention). To be noted: for time of peak tumor fluorescence signal / tumor fluorescence signal remained detectable (time post-injection): post-injection. Details: species or system mice. Here is the method:
as §1, §2
as §3, with “([…])” for “(4, 24, 48, 72, and 96 h post-injection)”

Data set [4] in a line: Partition coefficient (log p), n-octanol/PBS. It counts as physicochemical. Here is the method: (§4) ^68GaCl3 (5 mL, 20 mCi) and DOTA-Tz (50 μg) were mixed in a reaction vial. The pH was adjusted to 4.0–4.5 by adding 1 M sodium acetate, and the mixture was heated at 95 °C for 15 min without further purification. Radiochemical purity was confirmed by RP-HPLC. In vitro stability of ^68Ga-DOTA-Tz was assessed by incubating aliquots in 50% FBS or 50% PBS at 37 °C for 30 min, 1 h, 2 h, and 4 h. The partition coefficient (log p) was determined by mixing 1 mL of n-octanol with 1 mL of PBS containing the tracer, vortexing, and centrifuging at 3000 rpm for 5 min. Samples (0.1 mL) from both the organic and aqueous phases were withdrawn, and their radioactivity was measured using a γ-counter (PerkinElmer Wizard, Shelton, CT, USA).

The nature of data set [5]: In vitro stability in 50% fetal bovine serum (FBS). It counts as in vitro ADME. Here is the method: as §4
Data set [6] can be described thus: In vitro stability in 50% PBS. Type of data set: physicochemical. To be noted: 37 °C. Here is the method: as §4

Take `CC1(C)C(=CC=C2CCCC(C=CC3=[N+](CCCCS(=O)(=O)[O-])c4ccccc4C3(C)C)=C2Cl)N(CCCCCC(=O)NCCCNC(=O)OC2CCC=CCCC2)c2ccccc21` (stereo not shown) [DZ-1-TCO]: the tumor fluorescence intensity in data set [1] (4 h post-injection) is reported as 5.44 × 10^9 p/s/cm^2/sr; in data set [1] (24 h post-injection), 6.12 × 10^9 p/s/cm^2/sr; in data set [1] (48 h post-injection) it was 4.82 × 10^9 p/s/cm^2/sr; in data set [2] (4 h post-injection), 6.38 × 10^9 p/s/cm^2/sr; in data set [2] (24 h post-injection), 6.93 × 10^9 p/s/cm^2/sr; in data set [2] (48 h post-injection) it was 5.57 × 10^9 p/s/cm^2/sr. In addition, the results for the tumor-to-background fluorescence ratio in data set [3] (4 h) and in data set [3] (48 h) were 695.00 ± 59.15 and 720.00 ± 64.21, respectively. In addition, the “time of peak tumor fluorescence signal” value in data set [3] is listed as 24 h. Besides, the “tumor fluorescence signal remained detectable (time post-injection)” value in data set [3] was found to be 72 h.
For `CC1(C)C(=CC=C2CCCC(C=CC3=[N+](CCCCS(=O)(=O)[O-])c4ccccc4C3(C)C)=C2Cl)N(CCCCCC(=O)NCCCCC(N)C(=O)NCCOCCOCCOCCOCCNC(=O)OC2CCC=CCCC2)c2ccccc21` (stereo not shown) [DZ-Lys-PEG4-TCO], in data set [2] (24 h post-injection), the tumor fluorescence intensity was 1.20 × 10^10 p/s/cm^2/sr. Moreover, the tumor-to-background fluorescence ratio in data set [3] (4 h) was 737.00 ± 159.93. The tumor-to-background fluorescence ratio in data set [3] (24 h) was 1303.33 ± 116.76. For the same molecule, in data set [3], the “time of peak tumor fluorescence signal” value was 24 h and the “tumor fluorescence signal remained detectable (time post-injection)” value was found to be 96 h.
For `CC1(C)C(=CC=C2CCCC(C=CC3=[N+](CCCCS(=O)(=O)[O-])c4ccccc4C3(C)C)=C2Cl)N(CCCCCC(=O)NCCCCC(N)C(=O)NCCCNC(=O)OC2CCC=CCCC2)c2ccccc21` (stereo not shown) [DZ-Lys-TCO], the tumor fluorescence intensity was 5.23 × 10^9 p/s/cm^2/sr in data set [1] (4 h post-injection); 7.18 × 10^9 p/s/cm^2/sr in data set [1] (24 h post-injection); 4.30 × 10^9 p/s/cm^2/sr in data set [1] (48 h post-injection); 2.19 × 10^9 p/s/cm^2/sr in data set [2] (4 h post-injection); 7.06 × 10^9 p/s/cm^2/sr in data set [2] (24 h post-injection); 5.43 × 10^9 p/s/cm^2/sr in data set [2] (48 h post-injection). Also, the tumor-to-background fluorescence ratio in data set [3] (4 h) stood at 368.67 ± 151.28; in data set [3] (48 h), 4746.67 ± 100.66. For the same molecule, in data set [3] (48 h), the “fluorescence signal intensity, kidneys” value is 3.95 × 10^8 p/s/cm^2/sr. Besides, the “fluorescence signal intensity, liver” value is given as 5.04 × 10^8 p/s/cm^2/sr in data set [3] (48 h) and 4.38 × 10^8 p/s/cm^2/sr in data set [3] (96 h). Further, the “fluorescence signal intensity, lungs” value in data set [3] (48 h) is on record as 2.02 × 10^8 p/s/cm^2/sr. In data set [3] (48 h), the “fluorescence signal intensity, spleen” value is listed as 8.77 × 10^7 p/s/cm^2/sr. Besides, the “fluorescence in normal tissues” value in data set [3] (168 h) is “nearly undetectable”. The “tumor fluorescence signal remained detectable (time post-injection)” value in data set [3] is on record as “up to 168 h”.
The molecule `Cc1nnc(-c2ccc(OCCOCCOCCOCCNC(=O)CN3CCN(CC(=O)[O-])CCN(CC(=O)[O-])CCN(CC(=O)[O-])CC3)cc2)nn1.[68Ga+3]` [^68Ga-DOTA-Me-Tz] gave a log p in data set [4] of −2.87 ± 0.02. In addition, the “radiochemical purity in FBS at 4 h” value in data set [5] (50% FBS, 37 °C) stood at 85.88 ± 7.55%. The “radiochemical stability after 4 h” value in data set [5] (PBS and serum) is given as over 85%. Further, in data set [6], the “radiochemical purity in PBS after 4 h” value is reported as 94.48 ± 1.48%.

The values above are taken from PMC12735951, “A Bioorthogonal TCO–Tetrazine-Based Pretargeted PET/NIRF Platform Enabling High-Contrast Tumor Imaging” (Pharmaceuticals, 2025).
